Experimental data as given in patent US20080076760A1, “2,3,4,5-TETRAHYDRO-1H-1,5-BENZODIAZEPINE DERIVATIVE AND MEDICINAL COMPOSITION” (priority 2004, published 2008).
pKi: −log10 of the molar value. Where two headings read alike, the source gives them in different places.

Experiments:
[1] = biological target: human vasopressin V1a receptor (Homo sapiens, UniProt P37288); assay: Receptor binding study, [3H]AVP displacement on CHO cell membranes, human V1a
Protocol: (§1) (ii) Receptor Binding Study
(§2) Assay was performed using 50 mM of Tris-HCl (pH=7.4) (total amount: 250 μL) (buffer composition: containing […] of MgCl2 and 0.1% BSA), and incubation was performed at room temperature (25° C.) for one hour. After incubation, suck filtration was immediately performed and reaction was completed when the membrane sample was collected on a glass fiber filter fitted with the microplate. After the filter was washed with an ice-cold Tris-HCl buffer (50 mM Tris-HCl, 10 mM MgCl2, pH 7.4), radioactivity measurement was performed. Nonspecific binding was determined using nonradioactive-labeled AVP (1 μM).

[2] = biological target: human vasopressin V2 receptor (Homo sapiens, UniProt P30518); assay: Receptor binding study, [3H]AVP displacement on CHO cell membranes, human V2
Sequence of human vasopressin V2 receptor (P30518 whole entry): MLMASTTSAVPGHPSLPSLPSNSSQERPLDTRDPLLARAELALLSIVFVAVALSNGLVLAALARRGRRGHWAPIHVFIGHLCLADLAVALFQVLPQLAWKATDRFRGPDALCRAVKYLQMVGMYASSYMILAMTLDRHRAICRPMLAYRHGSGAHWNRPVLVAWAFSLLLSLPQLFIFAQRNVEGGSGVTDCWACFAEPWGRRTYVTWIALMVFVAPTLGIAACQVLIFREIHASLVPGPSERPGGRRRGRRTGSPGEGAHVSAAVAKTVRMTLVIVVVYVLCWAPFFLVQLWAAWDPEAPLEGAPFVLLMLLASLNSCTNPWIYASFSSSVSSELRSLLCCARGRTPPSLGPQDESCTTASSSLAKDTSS
Protocol: Preparation of Chinese hamster ovary (Cho) cell which expresses human vasopressin receptor subtype and production of membrane sample of the cell was conducted according to the method of Tahara et al. (Br. J. Pharmacol., 125, 1463-1470, 1998).
as §1
as §2, with “In saturation binding experiment, the membrane sample and [^3H]AVP of several concentrations (0.125 nM to 4.0 nM) were mixed and incubated in microplate wells. In displacement experiment, [^3H]AVP of constant concentrations (0.5 nM to 1.0 nM) and the membrane sample were mixed with Compound A of several concentrations, and incubation was performed. Assay” for “Assay”

[3] = [3H]AVP displacement, CHO cell membrane, 25° C., one hour, read-out: Human V1a Ki
[4] = [3H]AVP displacement, CHO cell membrane, 25° C., one hour, read-out: Human V2 Ki

Sequence of human vasopressin V1a receptor (P37288 whole entry): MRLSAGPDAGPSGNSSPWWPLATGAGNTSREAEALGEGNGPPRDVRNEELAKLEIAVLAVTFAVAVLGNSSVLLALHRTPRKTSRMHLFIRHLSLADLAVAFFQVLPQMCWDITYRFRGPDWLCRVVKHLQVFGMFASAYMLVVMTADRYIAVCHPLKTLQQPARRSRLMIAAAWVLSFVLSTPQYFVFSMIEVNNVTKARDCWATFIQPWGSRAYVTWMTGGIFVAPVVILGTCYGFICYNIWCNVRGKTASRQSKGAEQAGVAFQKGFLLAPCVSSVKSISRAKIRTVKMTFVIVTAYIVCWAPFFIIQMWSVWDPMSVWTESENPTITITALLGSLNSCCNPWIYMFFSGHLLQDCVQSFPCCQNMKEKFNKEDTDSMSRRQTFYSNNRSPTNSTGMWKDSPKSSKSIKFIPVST

SMILES | pKi [1, 3] | pKi [2, 4] | pKi [1] | pKi [2]
CCCN1CCN(CCCOc2cc(C(=O)N3CC[C@H](C)Nc4ccccc43)ccc2-c2ccc3[nH]ccc3c2)CC1 [Example 113, (4S)-1-[4-(1H-indol-5-yl)-3-[3-(4-propyl-1-piperazinyl)propoxy]benzoyl]-4-methyl-2,3,4,5-tetrahydro-1H-1,5-benzodiazepine] | 9.59 | 8.30 | – | –
C[C@H]1CCN(C(=O)c2ccc(-c3ccc4[nH]ccc4c3)c(C(=O)N3CCN(C)CC3)c2)c2ccccc2N1 [Example 102, (4S)-1-[4-(1H-indol-5-yl)-3-[(4-methyl-1-piperazinyl)carbonyl]benzoyl]-4-methyl-2,3,4,5-tetrahydro-1H-1,5-benzodiazepine] | 9.60 | 7.21 | – | –
C[C@H]1CCN(C(=O)c2ccc(-c3ccc4[nH]ccc4c3)c(N3CCOCC3)c2)c2ccccc2N1 [Example 134, (4S)-1-[4-(1H-indol-5-yl)-3-(4-morpholinyl)benzoyl]-4-methyl-2,3,4,5-tetrahydro-1H-1,5-benzodiazepine] | 9.31 | 8.57 | – | –
CNCCCOc1cc(C(=O)N2CC[C@H](C)Nc3ccccc32)ccc1-c1ccc2[nH]ccc2c1 [Example 51, N-[3-[2-(1H-indol-5-yl)-5-[[(4S)-4-methyl-2,3,4,5-tetrahydro-1H-1,5-benzodiazepin-1-yl]carbonyl]phenoxy]propyl]-N-methylamine] | 10.10 | 7.92 | – | –
CCCN(C)CCCCOc1cc(C(=O)N2CC[C@H](C)Nc3ccccc32)ccc1-c1ccc2[nH]ccc2c1 [Example 117, N-[4-[2-(1H-indol-5-yl)-5-[[(4S)-4-methyl-2,3,4,5-tetrahydro-1H-1,5-benzodiazepin-1-yl]carbonyl]phenoxy]butyl]-N-methyl-N-propylamine] | – | – | 9.68 | 7.92
CCCN(CCC)CCCOc1cc(C(=O)N2CC[C@H](C)Nc3ccccc32)ccc1-c1ccc2[nH]ccc2c1 [Example 79, N-[3-[2-(1H-indol-5-yl)-5-[[(4S)-4-methyl-2,3,4,5-tetrahydro-1H-1,5-benzodiazepin-1-yl]carbonyl]phenoxy]propyl]-N,N-dipropylamine] | 9.89 | 7.80 | – | –
C[C@H]1CCN(C(=O)c2ccc(-c3ccc4[nH]ccc4c3)c(OCCCN3CCC(N)CC3)c2)c2ccccc2N1 [Example 141, 1-[3-[2-(1H-indol-5-yl)-5-[[(4S)-4-methyl-2,3,4,5-tetrahydro-1H-1,5-benzodiazepin-1-yl]carbonyl]phenoxy]propyl]-4-piperidinylamine] | 9.35 | 8.00 | – | –
CCCN(C)CCOc1cc(C(=O)N2CC[C@H](C)Nc3ccccc32)ccc1-c1ccc2[nH]ccc2c1 [Example 121, N-[2-[2-(1H-indol-5-yl)-5-[[(4S)-4-methyl-2,3,4,5-tetrahydro-1H-1,5-benzodiazepin-1-yl]carbonyl]phenoxy]ethyl]-N-methyl-1-propaneamine] | 9.85 | 8.00 | – | –
CCCN(C)CCCOc1cc(C(=O)N2CC[C@H](C)Nc3ccccc32)ccc1-c1ccc(N)cc1 [Example 164, 2′-[3-[methyl(propyl)amino]propoxy]-4′-[[(4S)-4-methyl-2,3,4,5-tetrahydro-1H-1,5-benzodiazepin-1-yl]carbonyl][1,1′-biphenyl]-4-amine] | 9.82 | 6.32 | – | –
C[C@H]1CCN(C(=O)c2ccc(-c3ccc(N)cc3)c(OCCCN)c2)c2ccccc2N1 [Example 54, 2′-(3-aminopropoxy)-4′-[[(4S)-4-methyl-2,3,4,5-tetrahydro-1H-1,5-benzodiazepin-1-yl]carbonyl][1,1′-biphenyl]-4-amine] | 9.39 | 6.14 | – | –
CCCN(C)CCCOc1cc(C(=O)N2CC[C@@H](C)Nc3ccccc32)ccc1-c1ccc2[nH]ccc2c1 [Example 127, N-[3-[2-(1H-indol-5-yl)-5-[[(4R)-4-methyl-2,3,4,5-tetrahydro-1H-1,5-benzodiazepin-1-yl)carbonyl]phenoxy]propyl]-N-methyl-N-propylamine] | 9.68 | 7.11 | – | –
CCCN1CCN(CCOc2cc(C(=O)N3CC[C@H](C)Nc4ccccc43)ccc2-c2ccc(NCC)cc2)CC1 [Example 160, N-ethyl-4′-[[(4S)-4-methyl-2,3-4,5-tetrahydro-1H-1,5-benzodiazepin-1-yl]carbonyl]-2′-[2-(4-propyl-1-piperazinyl)ethoxy][1,1′-biphenyl]-4-amine] | 9.70 | 7.66 | – | –
C[C@H]1CCN(C(=O)c2ccc(-c3ccc4[nH]ccc4c3)c(N3CCN(C)CC3)c2)c2ccccc2N1 [Example 149, (4S)-1-[4-(1H-indol-5-yl)-3-(4-methyl-1-piperazinyl)benzoyl]-4-methyl-2,3,4,5-tetrahydro-1H-1,5-benzodiazepine] | 9.54 | 8.72 | – | –
C[C@H]1CCN(C(=O)c2ccc(-c3ccc4[nH]ccc4c3)c(OCCCN3CCOCC3)c2)c2ccccc2N1 [Example 61, (4S)-1-[4-(1H-indol-5-yl)-3-[3-(4-morpholinyl)propoxy]benzoyl]-4-methyl-2,3,4,5-tetrahydro-1H-1,5-benzodiazepine] | 9.66 | 8.72 | – | –
C[C@H]1CCN(C(=O)c2ccc(-c3ccc4[nH]ccc4c3)c(OCCCN3CCCCC3)c2)c2ccccc2N1 [Example 71, (4S)-1-[4-(1H-indol-5-yl)-3-[3-(1-piperidinyl)propoxy]benzoyl]-4-methyl-2,3,4,5-tetrahydro-1H-1,5-benzodiazepine] | 9.80 | 7.96 | – | –
C[C@H]1CCN(C(=O)c2ccc(-c3ccc4[nH]ccc4c3)c(OCCCN(C)C(C)(C)C)c2)c2ccccc2N1 [Example 82, N-(tert-butyl)-N-[3-[2-(1H-indol-5-yl)-5-[[(4S)-4-methyl-2,3,4,5-tetrahydro-1H-1,5-benzodiazepin-1-yl]carbonyl]phenoxy]propyl]-N-methylamine] | 9.80 | 7.80 | – | –
C[C@H]1CCN(C(=O)c2ccc(-c3ccc4[nH]ccc4c3)c(OCCCN3CCC(N(C)C)CC3)c2)c2ccccc2N1 [Example 123] | 9.42 | 8.00 | – | –
CCN(C)CCCOc1cc(C(=O)N2CC[C@H](C)Nc3ccccc32)ccc1-c1ccc2[nH]ccc2c1 [Example 118, N-ethyl-3-[2-(1H-indol-5-yl)-5-[[(4S)-4-methyl-2,3,4,5-tetrahydro-1H-1,5-benzodiazepin-1-yl]carbonyl]phenoxy]-N-methyl-1-propaneamine] | 9.82 | 8.02 | – | –
CC1CN(CCCOc2cc(C(=O)N3CC[C@H](C)Nc4ccccc43)ccc2-c2ccc3[nH]ccc3c2)CC(C)O1 (stereo partly drawn) [Example 80, (4S)-1-[3-[3-(2,6-dimethyl-4-morpholinyl)propoxy]-4-(1H-indol-5-yl)benzoyl]-4-methyl-2,3,4,5-tetrahydro-1H-1,5-benzodiazepine] | 10.19 | 8.29 | – | –
C[C@H]1CCN(C(=O)c2ccc(-c3ccc4[nH]ccc4c3)c(OCCCCCN3CCOCC3)c2)c2ccccc2N1 [Example 69, (4S)-1-[4-(1H-indol-5-yl)-3-[[5-(4-morpholinyl)pentyl]oxy]benzoyl]-4-methyl-2,3,4,5-tetrahydro-1H-1,5-benzodiazepine] | 9.62 | 7.77 | – | –
CC(C)N1CCN(CCCOc2cc(C(=O)N3CC[C@H](C)Nc4ccccc43)ccc2-c2ccc3[nH]ccc3c2)CC1 [Example 99, (4S)-1-[4-(1H-indol-5-yl)-3-[3-(4-isopropyl-1-piperazinyl)propoxy]benzoyl]-4-methyl-2,3,4,5-tetrahydro-1H-1,5-benzodiazepine] | 9.52 | 8.47 | – | –
C[C@H]1CCN(C(=O)c2ccc(-c3ccc4[nH]ccc4c3)c(OCCCN(C)C)c2)c2ccccc2N1 [Example 78, N-[3-[2-(1H-indol-5-yl)-5-[[(4S)-4-methyl-2,3,4,5-tetrahydro-1H-1,5-benzodiazepin-1-yl]carbonyl]phenoxy]propyl]-N,N-dimethylamine] | 9.96 | 7.92 | – | –
CCCN(C)CCCCOc1cc(C(=O)N2CC[C@H](C)Nc3ccccc32)ccc1-c1ccc(NCC)cc1 [Example 156] | 9.72 | 7.28 | – | –
CCCCN(CC)CCCOc1cc(C(=O)N2CC[C@H](C)Nc3ccccc32)ccc1-c1ccc2[nH]ccc2c1 [Example 124, N-ethyl-N-[3-[2-(1H-indol-5-yl)-5-[[(4S)-4-methyl-2,3,4,5-tetrahydro-1H-1,5-benzodiazepin-1-yl]carbonyl]phenoxy]propyl]-1-butaneamine] | 9.43 | 7.70 | – | –
C[C@H]1CCN(C(=O)c2ccc(-c3ccc4[nH]ccc4c3)c(C(=O)OCCCCN(C)C)c2)c2ccccc2N1 [Example 162, 4-(dimethylamino)butyl 2-(1H-indol-5-yl)-5-[[(4S)-4-methyl-2,3,4,5-tetrahydro-1H-1,5-benzodiazepin-1-yl]carbonyl]benzoate] | 9.89 | 7.54 | – | –
COc1ccc(S(=O)(=O)N2c3ccc(Cl)cc3[C@](O)(c3ccccc3Cl)[C@@H]2C(=O)N2CCC[C@H]2C(N)=O)cc1OC [SR49059, reference compound] | – | 6.84 | – | –
